Tests used:
C. acnes ATCC 6919 [1] = assay: In vitro reduction of C. acnes by 4-hexylresorcinol with or without 440 nm blue light, colony count; format: cell-based, Cutibacterium acnes; settings: for Ave. Log Reduction ± S.D., arithmetic sum (expected additive): sum of light only and 0.002% 4-hexylresorcinol only
Method: (§1) A standard C. acnes ATCC 6919 culture is grown in Reinforced Clostridial Media (RCM) (Remel, Lenexa, Kans.). A suspension of C. acnes is adjusted to OD600=1.0 using a Spectromax M5 spectrophotometer (Molecular Devices, San Jose, Calif.) to yield a concentration of 10^8 cfu/ml. A 1:100 dilution of the standardized suspension is created to yield an inoculum concentration of 10^6 cfu/ml. Therefore, 100μl of inoculum into 100 μl of test sample yields 5×10^5 cfu/ml C. acnes within a 96-well experiment plate.
The culture is incubated in anaerobic chamber (<10 ppm O^2, 2.5-5% H^2, balance N^2 at 35±2° C.), in the dark, on an orbital shaker at 80 RPM. For test treatments including light, the prepared C. acnes culture is exposed for two, 60-minute light cycles with a 60-minute hold time between. Each light cycle is with blue light at wavelength 440 nm and 22±2 mW/cm^2 intensity. After treatments, the sample is incubated overnight (16±2 hours) in an anaerobic chamber. The sample is then recovered onto agar and incubated 5-7 days until clear colonies are visible. After growth, the remaining viable C. acnes colonies are counted; converted to cfu/ml and the log 10 reduction in number of cells is calculated (log 10 reduction=no light control sample−test sample).
A C. acnes inoculum was prepared as set forth above and in the same manner as Example 1. The solution was stored at 4° C. until time of use. The stock solution was added to RCM to produce a final concentration of 0.01% (v/v) and inoculated with 0.1 mL of the C. acnes suspension to yield 10^6 cfu/ml. The prepared culture in RCM+ALA was incubated by shaking at 80 rpm, in the dark (foil covered), and in an anaerobic chamber at 35±2° C. for 24 hours.
A 0.02% (w/v) of n-4-hexylresorcinol (Alfa Aesar, Tewksbury, Mass.) was prepared in RCM. The sample stock solution was mixed as 1:10 (v/v) with 24-hour C. acnes culture in RCM+ALA. Organism control culture was diluted 1:10 (v/v) with RCM for equivalent organism concentration.
The in vitro evaluation was conducted as follows. The prepared C. acnes culture (grown with ALA) was mixed with the test sample as described above, added to 6-well plates and then exposed to two 60-minute, 440 nm blue light (22 mW) exposures, separated by one 60-minute rest period in the dark. Two samples were tested: 4-hexylresorcinol at 0.002% (v/v) and 24-hour C. acnes culture in RCM+ALA alone. A duplicate, 6-well plate was kept un-exposed to light as a control. All plates were incubated anaerobically, overnight, in the dark (foil covered), and in an anaerobic chamber at 35±2° C.
After 24-hour incubation, samples were serial diluted and plated onto Reinforced Clostridial Agar (Remel, Lenexa, Kans.). Agar plates were incubated anaerobically at 35±2° C. for 5-7 days until bacterial colonies were well-established. Then, colonies were counted and colony forming units (CFU) per ml were calculated. Statistically significant differences are defined by unshared letter groupings.

C. acnes ATCC 6919 [2] = assay: Minimum inhibitory concentration (MIC) of 4-hexyl resorcinol against C. acnes growth, serial dilution in 96-well plate, visible turbidity; format: cell-based, Cutibacterium acnes; set-up: key: A “+” indicates growth; a “−” indicates no growth; settings: anaerobic, 3 days, 35° C.
Method: as §1
The minimum inhibitory concentration (MIC) of 4-hexyl resorcinol was determined to investigate its ability to inhibit the growth of C. acnes. All media and diluents were sterile. Aseptic techniques were used during study execution.
A C. acnes inoculum was prepared as set forth above.
A 0.1% (w/w) stock of 4-hexylresorcinol (Alfa Aesar, Tewksbury, Mass.) was made in RCM. Serial 1:2 dilutions were made in RCM across successive wells of a 96-well plate (sterile, u-bottom, untreated culture plate from Greiner Bio-one, Monroe, N.C.) to yield 10 test concentrations. After inoculation with equal volumes of C. acnes suspension, the test concentrations ranged from 0.05% through […] (v/v). Sterile RCM and 5×10^5 cfu/ml C. acnes in RCM were set up as a negative growth control and a positive growth control, respectively. Sterile 0.1% (w/w) 4-hexylresorcinol in RCM was set up as a turbidity control.
The 96-well plate was incubated anaerobically for 3 days at 35° C. The presence of visible turbidity within a challenged well was indicative of growth, while a clear well indicated no growth. The lowest concentration that inhibited C. acnes growth was determined to be the MIC. Negative growth control (not turbid) and positive growth control (turbid) results were as expected.

CCCCCCc1ccc(O)cc1O [4-hexylresorcinol]
Ave. Log Reduction ± S.D. (C. acnes ATCC 6919 [1]; 0.002% (v/v) 4-hexylresorcinol plus 440 nm blue light (22 mW), two 60-minute exposures, simultaneous): 4.84 log
Ave. Log Reduction ± S.D. (C. acnes ATCC 6919 [1]; 0.002% (v/v) 4-hexylresorcinol plus 440 nm blue light (22 mW), two 60-minute exposures, simultaneous, listed as HR): 4.84 ± 0.40 log
Ave. Log Reduction ± S.D. (C. acnes ATCC 6919 [1]; 0.002% (v/v) 4-hexylresorcinol treatment only, no light): 1.00 log
Ave. Log Reduction ± S.D. (C. acnes ATCC 6919 [1]; 0.002% (v/v) 4-hexylresorcinol treatment only, no light, listed as HR): 1.00 ± 0.55 log
Benefit from the synergistic combination over expected additive reduction (C. acnes ATCC 6919 [1]; light plus 0.002% 4-hexylresorcinol versus arithmetic sum): 100 fold
Ave. Log Reduction ± S.D., arithmetic sum (expected additive) (C. acnes ATCC 6919 [1]): 2.83 log
Ave. Log Reduction ± S.D., arithmetic sum (expected additive) (C. acnes ATCC 6919 [1]; listed as HR): 2.83 ± 1.08 log
Growth (C. acnes ATCC 6919 [2]; concentration 1.25E^−2 % v/v): −
Growth (C. acnes ATCC 6919 [2]; concentration 1.56E^−3 % v/v): −
Growth (C. acnes ATCC 6919 [2]; concentration 1.95E^−4 % v/v): +
Growth (C. acnes ATCC 6919 [2]; concentration 2.50E^−2 % v/v): −
Growth (C. acnes ATCC 6919 [2]; concentration 3.13E^−3 % v/v): −
Growth (C. acnes ATCC 6919 [2]; concentration 3.91E^−4 % v/v): +
Growth (C. acnes ATCC 6919 [2]; concentration 5.0E^−2 % v/v): −
Growth (C. acnes ATCC 6919 [2]; concentration 6.25E^−3 % v/v): −
Growth (C. acnes ATCC 6919 [2]; concentration 7.81E^−4 % v/v): +
Growth (C. acnes ATCC 6919 [2]; concentration 9.77E^−5 % v/v): +
